Experimental data published in patent US20060127411A1 (priority 2002, published 2006).

What was measured:
[1] = system: IgE antibodies from the serum of patients with atopic eczema; format: binding, human
[2] = system: IgE antibodies from the serum of patients with atopic eczema; format: binding, human; remark: listed apart in the source
[3] = system: peripheral blood lymphocytes (PBMC); format: cell-based, human
[4] = system: peripheral blood lymphocytes (PBMC); format: cell-based, human; remark: listed apart in the source

QELDYLTRH [Peptide P1]
IgE binding in the dot blot [1]: weak but clearly detectable IgE binding

S. aureus enterotoxin B [SEB, reference compound]
IgE binding in the immunoblot [2]: possible to detect specific IgE antibodies against SEB

V Q T N K K K V T A Q E L D Y L T R H (VQTNKKKVTAQELDYLTRH) [Peptide (c)]
IgE binding in the immunoblot [2]: the only one to exhibit an IgE binding

QEEDFLTLH [Peptide P2]
Effect on proliferation of lymphocytes [3]: did not bring to light any significant effects
IgE binding in the dot blot [1]: weak but clearly detectable IgE binding
Intracellular IFNγ production [4]: P1 suppresses the production of IFNγ, a cytokine which mediates a number of immunological functions, more strongly than P2
Intracellular IL-4 production [4]: is stimulated as a function of the dosage
Ratio between IFNγ and IL-4 (IFNγ+ Th1 cells to IL-4+ Th2 cells) [4]: modified by the peptides as a function of the dosage in favour of the IL-4 producing Th2 lymphocytes
